Patent US11840533B2, “Pyridinone-based epigenetic modifiers and uses thereof” (THE BOARD OF TRUSTEES OF THE UNIVERSITY OF ILLINOIS, priority 2017, dated 2023)

Tested on: fulvestrant-resistant MCF7:5C-FR cells
Assay: Fulvestrant-resistant breast cancer cell viability (cell proliferation) assay
Assay type: cell-based
Conditions: growth inhibition in fulvestrant-resistant MCF-7:CFR cells, 120 hrs
Description: For the cell proliferation assay, the fulvestrant-resistant MCF7:5C-FR cells were seeded at about 2000 to about 2500/well in 96-well plates. The next day, compounds were add to the cells at desired serial concentrations form 3 nM to 10 uM. A final 0.1% (v/v) DMSO was used as vehicle control and 1 uM JQ1 was used as positive. The cell were grown in the normal culture condition for 120 hrs. Then the Hoechst 33342 dye were add to each well at a final concentration of 5 μg/ml, and put back to the incubator at 37 C for 90 min. The plates were scanned immediately after the incubation with Celigo (Nexcelcom Biocesnse) for the fluorescence of the nuclear using DAPI channel, and the cell number was counted thought the analysis function of the Celigo software. The normalized cell number to the vehicle control was used to represent the cell proliferation. […] N.D.=Not determined.

SMILES | IC50 (120 h) [µM] | IC50 [µM]
CNS(=O)(=O)CCc1ccc(OCC2CCC2)cc1C(=O)c1cn(C)c2c(O)nccc12 [Compound 14, 2-(4-(cyclobutylmethoxy)-2-(7-hydroxy-1-methyl-1H-pyrrolo[2,3-c]pyridine-3-carbonyl)phenyl)-N-methylethane-1-sulfonamide] | > 1 | 
CCS(=O)(=O)Nc1cc(-c2cn(CCCl)c3c(O)nccc23)cc2c1ccn2Cc1c(C)cccc1C [Compound 96, N-(6-(1-(2-chloroethyl)-7-hydroxy-1H-pyrrolo[2,3-c]pyridin-3-yl)-1-(2,6-dimethylbenzyl)-1H-indol-4-yl)ethanesulfonamide] |  | > 0.1
CCN(C(=O)C1COC1)c1cc(-c2cn(C)c3c(=O)[nH]ccc23)cc2c1ccn2Cc1c(C)cccc1C [Compound 77, N-(1-(2,6-dimethylbenzyl)-6-(7-hydroxy-1-methyl-1H-pyrrolo[2,3-c]pyridin-3-yl)-1H-indol-4-yl)-N-ethyloxetane-3-carboxamide] | > 0.1 | 
CCS(=O)(=O)Nc1cccc2c1nc(-c1cn(C)c3c(O)nccc13)n2Cc1ccc(N(C)C)cc1 [Compound 66, N-(1-(4-(dimethylamino)benzyl)-2-(7-hydroxy-1-methyl-1H-pyrrolo[2,3-c]pyridin-3-yl)-1H-benzo[d]imidaol-4-yl)ethanesulfonamide] | > 0.1 | 
Cn1cc(-c2cc(NS(C)(=O)=O)cc3ccn(Cc4ccc(F)cc4)c23)c2ccnc(O)c21 [Compound 20, N-(1-(4-fluorobenzyl)-7-(7-hydroxy-1-methyl-1H-pyrrolo[2,3-c]pyridin-3-yl)-1H-indol-5-yl)methanesulfonamide] | 1.99 | 
CCS(=O)(=O)Nc1cc(-c2cn(CCCl)c3c(O)nccc23)cc2c1ccn2Cc1ccccc1 [Compound 95, N-(1-benzyl-6-(1-(2-chloroethyl)-7-hydroxy-1H-pyrrolo[2,3-c]pyridin-3-yl)-1H-indol-4-yl)ethanesulfonamide] | > 0.1 | 
CCS(=O)(=O)Nc1cc(-c2cn(C)c3c(O)nccc23)cc2c1cnn2Cc1cccc2ccsc12 [Compound 44, N-(1-(benzo[b]thiophen-7-ylmethyl)-6-(7-hydroxy-1-methyl-1H-pyrrolo[2,3-c]pyridin-3-yl)-1H-indazol-4-yl)ethanesulfonamide] | > 0.1 | 
CCS(=O)(=O)Nc1cc(-c2cn(CCCl)c3c(O)nccc23)cc2c1ccn2Cc1c(C)cc(F)cc1C [Compound 83, N-(6-(1-(2-chloroethyl)-7-hydroxy-1H-pyrrolo[2,3-c]pyridin-3-yl)-1-(4-fluoro-2,6-dimethylbenzyl)-1H-indol-4-yl)ethanesulfonamide] | > 1 | 
CCS(=O)(=O)Nc1cc(-c2cn(C)c3c(O)nccc23)cc2c1ccn2Cc1ccc(C#N)cc1 [Compound 58, N-(1-(4-cyanobenzyl)-6-(7-hydroxy-1-methyl-1H-pyrrolo[2,3-c]pyridin-3-yl)-1H-indol-4-yl)ethanesulfonamide] | < 1 | 
CCS(=O)(=O)Nc1cc(-c2cn(C)c3c(O)nccc23)cc2c1ncn2Cc1ccc(F)cc1 [Compound 37, N-(1-(4-fluorobenzyl)-6-(7-hydroxy-1-methyl-1H-pyrrolo[2,3-c]pyridin-3-yl)-1H-benzo[d]imidazol-4-yl)ethanesulfonamide] | < 1 | 
CCS(=O)(=O)Nc1cc(-c2cn(CCCl)c3c(O)nccc23)cc2c1ccn2Cc1ccc(F)cc1Cl [Compound 82, N-(1-(2-chloro-4-fluorobenzyl)-6-(1-(2-chloroethyl)-7-hydroxy-1H-pyrrolo[2,3-c]pyridin-3-yl)-1H-indol-4-yl)ethanesulfonamide] | > 1 | 
CS(=O)(=O)Nc1cc(-c2cn(CCCl)c3c(O)nccc23)cc2c1ccn2Cc1ccc(F)cc1 [Compound 79, N-(6-(1-(2-chloroethyl)-7-hydroxy-1H-pyrrolo[2,3-c]pyridin-3-yl)-1-(4-fluorobenzyl)-1H-indol-4-yl)methanesulfonamide] | > 0.1 | 
Cn1cc(C(=O)c2ccc(-c3ccc(F)cc3)cc2)c2ccnc(O)c21 [Compound 4, (4′-fluoro-[1,1′-biphenyl]-4-yl)(7-hydroxy-1-methyl-1H-pyrrolo[2,3-c]pyridin-3-yl)methanone] | > 5 | 
CCS(=O)(=O)Nc1cc(-c2cn(CCCl)c3c(O)nccc23)cc2c1ccn2Cc1ccc(F)cc1 [Compound 80, N-(6-(1-(2-chloroethyl)-7-hydroxy-1H-pyrrolo[2,3-c]pyridin-3-yl)-1-(4-fluorobenzyl)-1H-indol-4-yl)ethanesulfonamide] | > 0.1 | 

Results, then the compound that gave them:

IC50 (120 h) [µM] | IC50 [µM] | SMILES
< 1 |  | CCS(=O)(=O)Nc1cc(-c2cn(C)c3c(O)nccc23)cc2c1cnn2Cc1c(C)cc(F)cc1C [Compound 33, N-(1-(4-fluoro-2,6-dimethylbenzyl)-6-(7-hydroxy-1-methyl-1H-pyrrolo[2,3-c]pyridin-3-yl)-1H-indazol-4-yl)ethanesulfonamide]
< 1 |  | CCS(=O)(=O)Nc1cc(-c2cn(C)c3c(O)nccc23)cc2c1ccn2Cc1ccccc1 [Compound 49, N-(1-benzyl-6-(7-hydroxy-1-methyl-1H-pyrrolo[2,3-c]pyridin-3-yl)-1H-indol-4-yl)ethanesulfonamide]
< 1 |  | CCS(=O)(=O)Nc1cc(-c2cn(C)c3c(O)nccc23)cc2c1ccn2[C@@H](c1ccccc1)C1CCOCC1 [Compound 92, (R)-N-(6-(7-hydroxy-1-methyl-1H-pyrrolo[2,3-c]pyridin-3-yl)-1-(phenyl(tetrahydro-2H-pyran-4-yl)methyl)-1H-indol-4-yl)ethanesulfonamide]
< 1 |  | Cn1cc(-c2cc(NS(C)(=O)=O)c3ccn(Cc4cccc(F)c4)c3c2)c2cc[nH]c(=O)c21 [Compound 100, N-(1-(3-fluorobenzyl)-6-(1-methyl-7-oxo-6,7-dihydro-1H-pyrrolo[2,3-c]pyridin-3-yl)-1H-indol-4-yl)methanesulfonamide]
< 1 |  | CCS(=O)(=O)Nc1cc(-c2cn(C)c3c(O)nccc23)cc2c1ncn2[C@H](c1ccccc1)C1CCOCC1 [Compound 64, (S)-N-(6-(7-hydroxy-1-methyl-1H-pyrrolo[2,3-c]pyridin-3-yl)-1-(phenyl(tetrahydro-2H-pyran-4-yl)methyl)-1H-benzo[d]imidaol-4-yl)ethanesulfonamide]
< 1 |  | CC(=O)Nc1cccc2c1cc(-c1cn(C)c3c(O)nccc13)n2[C@H](c1ccccc1)C1CCOCC1 [Compound 119, (S)-N-(2-(7-hydroxy-1-methyl-1H-pyrrolo[2,3-c]pyridin-3-yl)-1-(phenyl(tetrahydro-2H-pyran-4-yl)methyl)-1H-indol-4-yl)acetamide]
< 1 |  | CCS(=O)(=O)c1cccc2c1cc(-c1cn(C)c3c(O)nccc13)n2[C@H](c1ccccc1)C1CCOCC1 [Compound 120, (S)-3-(4-(ethylsulfonyl)-1-(phenyl(tetrahydro-2H-pyran-4-yl)methyl)-1H-indol-2-yl)-1-methyl-1H-pyrrolo[2,3-c]pyridin-7-ol]
< 1 |  | CC(C)C(=O)Nc1cccc2c1cc(-c1cn(C)c3c(O)nccc13)n2[C@@H](c1ccccc1)C1CCOCC1 [Compound 124, (R)-N-(2-(7-hydroxy-1-methyl-1H-pyrrolo[2,3-c]pyridin-3-yl)-1-(phenyl(tetrahydro-2H-pyran-4-yl)methyl)-1H-indol-4-yl)isobutyramide]
< 1 |  | CCS(=O)(=O)Nc1cc(-c2cn(CCCl)c3c(O)nccc23)cc2c1ccn2Cc1ccc(Cl)c(Cl)c1 [Compound 87, N-(6-(1-(2-chloroethyl)-7-hydroxy-1H-pyrrolo[2,3-c]pyridin-3-yl)-1-(3,4-dichlorobenzyl)-1H-indol-4-yl)ethanesulfonamide]
< 1 |  | CCS(=O)(=O)Nc1cc(-c2cn(C)c3c(O)nccc23)cc2c1cnn2Cc1cccc(Cl)c1Cl [Compound 36, N-(1-(2,3-dichlorobenzyl)-6-(7-hydroxy-1-methyl-1H-pyrrolo[2,3-c]pyridin-3-yl)-1H-indazol-4-yl)ethanesulfonamide]
< 1 |  | CCS(=O)(=O)Nc1cccc2c1nc(-c1cn(C)c3c(O)nccc13)n2Cc1ccc(F)cc1C [Compound 41, N-(1-(4-fluoro-2-methylbenzyl)-2-(7-hydroxy-1-methyl-1H-pyrrolo[2,3-c]pyridin-3-yl)-1H-benzo[d]imidazol-4-yl)ethanesulfonamide]
< 1 |  | Cn1cc(-c2cc(S(C)(=O)=O)c3ccn(C(C)(c4ccccn4)c4ccccn4)c3c2)c2cc[nH]c(=O)c21 [Compound 128, 3-(1-(1,1-di(pyridin-2-yl)ethyl)-4-(methylsulfonyl)-1H-indol-6-yl)-1-methyl-1,6-dihydro-7H-pyrrolo[2,3-c]pyridin-7-one]
< 1 |  | CCS(=O)(=O)c1cc(-c2cn(C)c3c(=O)[nH]ccc23)cc2c1ccn2C(C)(c1ccccn1)c1ccccn1 [Compound 129, 3-(1-(1,1-di(pyridin-2-yl)ethyl)-4-(ethylsulfonyl)-1H-indol-6-yl)-1-methyl-1,6-dihydro-7H-pyrrolo[2,3-c]pyridin-7-one]
< 1 |  | Cn1cc(-c2nc3c(NS(C)(=O)=O)cccc3n2[C@H](c2ccccc2)C2CCOCC2)c2ccnc(O)c21 [Compound 67, (S)-N-(2-(7-hydroxy-1-methyl-1H-pyrrolo[2,3-c]pyridin-3-yl)-1-(phenyl(tetrahydro-2H-pyran-4-yl)methyl)-1H-benzo[d]imidaol-4-yl)methanesulfonamide]
< 0.2 |  | CCS(=O)(=O)Nc1cc(-c2cn(C)c3c(O)nccc23)cc2c1ccn2Cc1ccc(F)cc1C [Compound 25, N-(1-(4-fluoro-2-methylbenzyl)-6-(7-hydroxy-1-methyl-1H-pyrrolo[2,3-c]pyridin-3-yl)-1H-indol-4-yl)ethanesulfonamide]
